Laboratory results taken from PubChem BioAssay (NCI).
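At the GI50, growth is halved. TGI: total growth inhibition.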

Tests used:
Assay in all cases: NCI-60 cell line screen, 384-well format
NCI-H460 NSCLC = test system: NCI-H460 NSCLC
IGROV1 ovarian = test system: IGROV1 ovarian
RXF 393 renal = test system: RXF 393 renal
NCI-H322M lung = test system: NCI-H322M lung
M14 melanoma = test system: M14 melanoma
HOP-92 NSCLC = test system: HOP-92 NSCLC
NCI/ADR-RES ovarian = test system: NCI/ADR-RES ovarian
HS 578T breast = test system: HS 578T breast
MCF7 breast = test system: MCF7 breast
LOX IMVI melanoma = test system: LOX IMVI melanoma
ACHN renal = test system: ACHN renal
SNB-75 CNS = test system: SNB-75 CNS
A498 renal = test system: A498 renal
CCRF-CEM leukemia = test system: CCRF-CEM leukemia
PC-3 prostate = test system: PC-3 prostate
786-0 renal = test system: 786-0 renal
OVCAR-3 ovarian = test system: OVCAR-3 ovarian
SK-MEL-5 melanoma = test system: SK-MEL-5 melanoma
EKVX NSCLC = test system: EKVX NSCLC
HCT-15 colon = test system: HCT-15 colon
UACC-257 melanoma = test system: UACC-257 melanoma
HT29 colon = test system: HT29 colon
HCT-116 colon = test system: HCT-116 colon
HCC-2998 colon = test system: HCC-2998 colon
UO-31 renal = test system: UO-31 renal
HOP-62 NSCLC = test system: HOP-62 NSCLC
NCI-H23 lung = test system: NCI-H23 lung
DU-145 prostate = test system: DU-145 prostate
COLO 205 colon = test system: COLO 205 colon
MDA-MB-231 breast = test system: MDA-MB-231 breast
SF-295 CNS = test system: SF-295 CNS
BT-549 breast = test system: BT-549 breast
SF-539 CNS = test system: SF-539 CNS
U251 glioblastoma = test system: U251 glioblastoma
MDA-MB-435 melanoma = test system: MDA-MB-435 melanoma
OVCAR-4 ovarian = test system: OVCAR-4 ovarian
CAKI-1 renal = test system: CAKI-1 renal
K-562 leukemia = test system: K-562 leukemia
SN12C renal = test system: SN12C renal
SF-268 CNS = test system: SF-268 CNS
A549 NSCLC = test system: A549 NSCLC
MOLT-4 leukemia = test system: MOLT-4 leukemia
MALME-3M melanoma = test system: MALME-3M melanoma
NCI-H522 lung = test system: NCI-H522 lung
KM12 colon = test system: KM12 colon
SK-OV-3 ovarian = test system: SK-OV-3 ovarian
SK-MEL-28 melanoma = test system: SK-MEL-28 melanoma
UACC-62 melanoma = test system: UACC-62 melanoma
NCI-H226 lung = test system: NCI-H226 lung
T-47D breast = test system: T-47D breast
SW-620 colon = test system: SW-620 colon
MDA-MB-468 breast = test system: MDA-MB-468 breast
OVCAR-8 ovarian = test system: OVCAR-8 ovarian
TK-10 renal = test system: TK-10 renal

With `Cc1cc(C(=O)NOCCO)c(Nc2ccc(I)cc2F)n(C)c1=O` the GI50 (NCI-H460 NSCLC) was < 0.01 µM, the TGI (NCI-H460 NSCLC) was > 100 µM and the GI50 (IGROV1 ovarian) was < 0.01 µM. For the same molecule, the TGI (IGROV1 ovarian) was > 100 µM, the GI50 (RXF 393 renal) was 0.0582 µM and the TGI (RXF 393 renal) was > 100 µM. For the same molecule, the GI50 (NCI-H322M lung) was < 0.01 µM, the TGI (NCI-H322M lung) was > 100 µM and the GI50 (M14 melanoma) was < 0.01 µM. The TGI (M14 melanoma) was < 0.01 µM, the GI50 (HOP-92 NSCLC) was 0.0157 µM and the TGI (HOP-92 NSCLC) was 0.125 µM. The GI50 (NCI/ADR-RES ovarian) was > 100 µM, the TGI (NCI/ADR-RES ovarian) was > 100 µM and the GI50 (HS 578T breast) was 0.0264 µM. The TGI (HS 578T breast) was > 100 µM, the GI50 (MCF7 breast) was > 100 µM and the TGI (MCF7 breast) was > 100 µM. For the same molecule, the GI50 (LOX IMVI melanoma) was < 0.01 µM, the TGI (LOX IMVI melanoma) was 0.116 µM and the GI50 (ACHN renal) was 22.2 µM. For the same molecule, the TGI (ACHN renal) was > 100 µM, the GI50 (SNB-75 CNS) was 0.18 µM and the TGI (SNB-75 CNS) was > 100 µM. For the same molecule, the GI50 (A498 renal) was 35.7 µM, the TGI (A498 renal) was > 100 µM and the GI50 (CCRF-CEM leukemia) was > 100 µM. For the same molecule, the TGI (CCRF-CEM leukemia) was > 100 µM, the GI50 (PC-3 prostate) was > 100 µM and the TGI (PC-3 prostate) was > 100 µM. The GI50 ([…]-0 renal) was 0.0446 µM, the TGI (786-0 renal) was > 100 µM and the GI50 (OVCAR-3 ovarian) was 62.9 µM. The TGI (OVCAR-3 ovarian) was > 100 µM, the GI50 (SK-MEL-5 melanoma) was < 0.01 µM and the TGI (SK-MEL-5 melanoma) was > 100 µM. The GI50 (EKVX NSCLC) was 0.0243 µM, the TGI (EKVX NSCLC) was > 100 µM and the GI50 (HCT-15 colon) was 0.145 µM. The TGI (HCT-15 colon) was > 100 µM, the GI50 (UACC-257 melanoma) was < 0.01 µM and the TGI (UACC-257 melanoma) was < 0.01 µM. For the same molecule, the GI50 (HT29 colon) was < 0.01 µM, the TGI (HT29 colon) was > 100 µM and the GI50 (HCT-116 colon) was < 0.01 µM. The TGI (HCT-116 colon) was 0.121 µM, the GI50 (HCC-2998 colon) was < 0.01 µM and the TGI (HCC-2998 colon) was < 0.01 µM. The GI50 (UO-31 renal) was 0.0404 µM, the TGI (UO-31 renal) was > 100 µM and the GI50 (HOP-62 NSCLC) was < 0.01 µM. The TGI (HOP-62 NSCLC) was > 100 µM, the GI50 (NCI-H23 lung) was < 0.01 µM and the TGI (NCI-H23 lung) was 0.0435 µM. The GI50 (DU-145 prostate) was 4.72 µM, the TGI (DU-145 prostate) was > 100 µM and the GI50 (COLO 205 colon) was < 0.01 µM. The TGI (COLO 205 colon) was 0.0132 µM, the GI50 (MDA-MB-231 breast) was < 0.01 µM and the TGI (MDA-MB-231 breast) was 0.138 µM. For the same molecule, the GI50 (SF-295 CNS) was 65.7 µM, the TGI (SF-295 CNS) was > 100 µM and the GI50 (BT-549 breast) was 20.4 µM. For the same molecule, the TGI (BT-549 breast) was > 100 µM, the GI50 (SF-539 CNS) was 0.052 µM and the TGI (SF-539 CNS) was > 100 µM. The GI50 (U251 glioblastoma) was 0.0391 µM, the TGI (U251 glioblastoma) was > 100 µM and the GI50 (MDA-MB-435 melanoma) was < 0.01 µM. For the same molecule, the TGI (MDA-MB-435 melanoma) was > 100 µM, the GI50 (OVCAR-4 ovarian) was > 100 µM and the TGI (OVCAR-4 ovarian) was > 100 µM. The GI50 (CAKI-1 renal) was 0.012 µM, the TGI (CAKI-1 renal) was > 100 µM and the GI50 (K-562 leukemia) was 0.0114 µM. The TGI (K-562 leukemia) was > 100 µM, the GI50 (SN12C renal) was < 0.01 µM and the TGI (SN12C renal) was 48.7 µM. The GI50 (SF-268 CNS) was > 100 µM, the TGI (SF-268 CNS) was > 100 µM and the GI50 (A549 NSCLC) was 0.0118 µM. The TGI (A549 NSCLC) was 74.2 µM, the GI50 (MOLT-4 leukemia) was > 100 µM and the TGI (MOLT-4 leukemia) was > 100 µM. For the same molecule, the GI50 (MALME-3M melanoma) was < 0.01 µM, the TGI (MALME-3M melanoma) was < 0.01 µM and the GI50 (NCI-H522 lung) was 33.2 µM. For the same molecule, the TGI (NCI-H522 lung) was > 100 µM, the GI50 (KM12 colon) was < 0.01 µM and the TGI (KM12 colon) was > 100 µM. For the same molecule, the GI50 (SK-OV-3 ovarian) was > 100 µM, the TGI (SK-OV-3 ovarian) was > 100 µM and the GI50 (SK-MEL-28 melanoma) was < 0.01 µM. The TGI (SK-MEL-28 melanoma) was < 0.01 µM, the GI50 (UACC-62 melanoma) was < 0.01 µM and the TGI (UACC-62 melanoma) was < 0.01 µM. For the same molecule, the GI50 (NCI-H226 lung) was 0.0389 µM, the TGI (NCI-H226 lung) was 94.4 µM and the GI50 (T-47D breast) was > 100 µM. For the same molecule, the TGI (T-47D breast) was > 100 µM, the GI50 (SW-620 colon) was < 0.01 µM and the TGI (SW-620 colon) was > 100 µM. For the same molecule, the GI50 (MDA-MB-468 breast) was 49.7 µM, the TGI (MDA-MB-468 breast) was > 100 µM and the GI50 (OVCAR-8 ovarian) was 32 µM. The TGI (OVCAR-8 ovarian) was > 100 µM, the GI50 (TK-10 renal) was 0.0521 µM and the TGI (TK-10 renal) was > 100 µM.
